# Data reported in US20240382511A1, “NICOTINAMIDE MONONUCLEOTIDE DERIVATIVES AND USE THEREOF FOR THE TREATMENT OF HEART FAILURE WITH PRESERVED EJECTION FRACTION” (NUVAMID SA, priority 2021, published 2024).
# Assays:
# Format in all cases: in vivo, hamster (Golden Syrian)
# [1] = system: free choice fed hamsters (diet-induced NASH hamster model of HFpEF); experiment: Organ weights (heart, liver, lungs), normalized or not to tibia length, in diet-induced NASH hamster model of HFpEF; settings: normalized to tibia length; after 20 weeks of diet including 5 weeks of treatment per os (compound 001 600 mg/kg, vardenafil 10 mg/kg); FIG. 11
# From the text: (§1) Animals. Male hamsters (Golden Syrian), 4-week-old at receipt, were acclimated at least 5 days before the beginning of the study. Control animals were fed with a chow diet with normal tap water. For diet-induced NASH model, animals were fed with a free choice diet consisting of (a) a chow diet with normal water and (b) a high fat/cholesterol diet with 10% fructose enriched tap water. Food and water intake have been measured once a week. Dosage regimen and test groups. Animals were divided into 5 groups: [table] The study was conducted over 20 weeks. Treatments were administered from week 15 until the end of the experiment (duration 5 weeks), once a day, per os, at a rate of 10 ml/kg. Water was used as vehicle. Vardenafil was used as reference compound. Data analysis. All graphs represent means±standard error of mean (sem). Statistical analysis has been performed using GraphPad Prism 5 software. Single comparisons were made using Student's unpaired t-test or Mann Whitney in case of significant variance. […] During 20 weeks of diet including 5 weeks under treatment with vehicle, compound 001, vardenafil or both, body weight, food and water intake were recorded once a week. Blood was collected at week 14 and week 20 to measure plasma insulin, glucose and ALT/AST, and NT-pro BNP level was evaluated at week 20. Echocardiographic studies were assessed at week 14 and week 20. […]
# [2] = system: free choice fed hamsters (diet-induced NASH hamster model of HFpEF); experiment: Biochemical analysis (glucose, plasma insulin, ALT/AST, NT pro-BNP) in diet-induced NASH hamster model of HFpEF
# From the text: Animals. Male hamsters (Golden Syrian), 4-week-old at receipt, were acclimated at least 5 days before the beginning of the study. Control animals were fed with a chow diet with normal tap water. For diet-induced NASH model, animals were fed with a free choice diet consisting of (a) a chow diet with normal water and (b) a high fat/cholesterol diet with 10% fructose enriched tap water. Food and water intake have been measured once a week. Dosage regimen and test groups. Animals were divided into 5 groups: [table] The study was conducted over 20 weeks. Treatments were administered from week 15 until the end of the experiment (duration 5 weeks), once a day, per os, at a rate of 10 ml/kg. Water was used as vehicle. Vardenafil was used as reference compound. Biochemical analysis. After 14 and 20 weeks of diet, blood was collected through tail vein, saphenous vein or retro orbital sinus after a 6 h fasting period to measure respectively glucose, plasma insulin and ALT/AST. After 20 weeks of diet, blood was collected and centrifuged to obtain plasma which was used to measure NT pro-BNP in plasma. Data analysis. All graphs represent means±standard error of mean (sem). Statistical analysis has been performed using GraphPad Prism 5 software. Single comparisons were made using Student's unpaired t-test or Mann Whitney in case of significant variance. Multiple comparisons have been carried out with two-way ANOVA followed by post-hoc Bonferroni test or one-way ANOVA followed by post-hoc Dunnett or Kruskall-Wallis test in case of significant variance. For all tests, p<0.05 was considered significant.
# [3] = system: free choice fed hamsters (diet-induced NASH hamster model of HFpEF); experiment: Body weight, food and water intake in diet-induced NASH hamster model of HFpEF; settings: treatment once a day per os from week 15, 5 weeks (compound 001 600 mg/kg, vardenafil 10 mg/kg), FIG. 5
# From the text: as §1
# [4] = system: free choice fed hamsters (diet-induced NASH hamster model of HFpEF); experiment: Echocardiography (left ventricular function and dimensions) in diet-induced NASH hamster model of HFpEF; settings: for cardiac parameters (overall conclusion): diet-induced NASH hamster model, end of 5-week treatment period
# From the text: Animals. Male hamsters (Golden Syrian), 4-week-old at receipt, were acclimated at least 5 days before the beginning of the study. Control animals were fed with a chow diet with normal tap water. For diet-induced NASH model, animals were fed with a free choice diet consisting of (a) a chow diet with normal water and (b) a high fat/cholesterol diet with 10% fructose enriched tap water. Food and water intake have been measured once a week. Dosage regimen and test groups. Animals were divided into 5 groups: [table] The study was conducted over 20 weeks. Treatments were administered from week 15 until the end of the experiment (duration 5 weeks), once a day, per os, at a rate of 10 ml/kg. Water was used as vehicle. Vardenafil was used as reference compound. Echocardiography. Left ventricular function and dimensions were assessed 14 and 20 weeks after the start of diet using two-dimensional echocardiograph (VF16-5 probe, Siemens, Acuson NX3 Elite). Numeric images of the heart were obtained in parasternal long and short-axis views using or not time motion for systolic function and in apical four chambers view with doppler mode for diastolic function. Heart rate, left ventricular end-diastolic and end-systolic diameters and volumes, as well as posterior and anterior wall thicknesses in diastole and systole, mitral flow velocity (E and A waves), the isovolumic relaxation time (IVRT), and annular tissue velocity of the mitral valve (e′ and a′ peaks) were measured. Left ventricular ejection fraction, fractional shortening, E/A ratio and E/E′ ratio were then calculated. Data analysis. All graphs represent means±standard error of mean (sem). Statistical analysis has been performed using GraphPad Prism 5 software. Single comparisons were made using Student's unpaired t-test or Mann Whitney in case of significant variance. Multiple comparisons have been carried out with two-way ANOVA followed by post-hoc Bonferroni test or one-way ANOVA followed by post-hoc Dunnett or Kruskall-Wallis test in case of significant variance. For all tests, p<0.05 was considered significant.
smiles,measurement,setting,value
"NC(=O)c1ccc[n+]([C@@H]2O[C@H](COP(=O)([O-])O)[C@@H](O)[C@H]2O)c1 [compound 001, nicotinamide mononucleotide]",lung oedema (difference between wet and dry lung weight),[1],non significantly reduced
same,plasma insulin levels,"[2]; week 20, after 5 weeks of treatment per os (compound 001 600 mg/kg, vardenafil 10 mg/kg), FIG. 9C",tended to increase plasma insulin levels
same,HOMA-IR index,"[2]; week 20, after 5 weeks of treatment per os (compound 001 600 mg/kg, vardenafil 10 mg/kg), FIG. 9E",tended to increase plasma insulin levels and HOMA-IR index
same,plasma AST,"[2]; week 20, after 5 weeks of treatment per os, 600 mg/kg, FIG. 9B",tendency to restore plasma AST
same,body weight / body weight gain,[3],significant decrease in body weight
same,cardiac parameters (overall conclusion),[4],improved most of cardiac parameters
same,cardiac parameters (overall conclusion),[4]; listed as NMN,improve cardiac parameters
same,diastolic function,"[4]; echocardiography after 20 weeks of diet including 5 weeks of treatment per os (compound 001 600 mg/kg, vardenafil 10 mg/kg)",improved diastolic function
same,E/A ratio,"[4]; echocardiography after 20 weeks of diet including 5 weeks of treatment per os (compound 001 600 mg/kg, vardenafil 10 mg/kg), vs free choice vehicle, FIG. 8A",significant decrease in E/A ratio
same,E′/A′ ratio,"[4]; echocardiography after 20 weeks of diet including 5 weeks of treatment per os (compound 001 600 mg/kg, vardenafil 10 mg/kg), vs free choice vehicle, FIG. 8B",increased E′/A′ ratio
same,E/E′ ratio,"[4]; echocardiography after 20 weeks of diet including 5 weeks of treatment per os (compound 001 600 mg/kg, vardenafil 10 mg/kg), vs free choice vehicle, FIG. 8D",E/E′ ratio decreased
same,isovolumic relaxation time (IVRT),"[4]; echocardiography after 20 weeks of diet including 5 weeks of treatment per os (compound 001 600 mg/kg, vardenafil 10 mg/kg), vs free choice vehicle, FIG. 8E",increased to normal levels
